Format in all cases: in vivo, mouse
The subject of experiment [1] is isolated endothelial cells. As to the kind of experiment: Western blot in isolated endothelial cells from Wnt inhibitor-treated diabetic mice. The following applies: isolated ECs from Wnt inhibitor-treated diabetic mice.
Description: Western blot analysis of Snail1, PPARα, active-β-catenin, and HIF1α proteins in isolated endothelial cells. […] Densitometry calculations are combined from three independent experiments Data are mean±SEM. One-way Anova with Tukey multiple comparison post hoc test was used to calculate statistical significance. Significance—*p<0.05, **p<0.01, ***p<0.001. Isolation of endothelial cells. Endothelial cells from the kidneys of non-diabetic and diabetic mice were isolated using a standardized kit (Miltenyl Biotech, USA) by following the manufacturer's instructions. Briefly, kidneys were isolated and minced into small pieces. Using a series of enzymatic reactions by treating the tissue with trypsin and Collagenase type I solution, a single cell suspension was created. The pellet was dissolved with CD31 magnetic beads and the CD31-labelled cells were separated on a magnetic separator. The cells were further purified on a column. Cell number was counted by hemocytometer and cells were plated on 0.1% gelatin coated Petri dishes. Cell purity was measured by flow cytometry (BD FACSDiva) using PE-conjugated CD31 (BDB553373) (1:100) and FITC-conjugated CD45 (BDB553079) (1:100), both from Becton Dickinson (USA). Western blot. Protein lysates were boiled in sodium dodecyl sulfate (SDS) sample buffer at 94′C for 5 min. […]
The subject of another experiment is db/db mice. As to the kind of experiment: Wnt inhibitor (LGK-974) treatment in db/db mice. The conditions noted are these: 5 mg/kg body weight orally by gavage. The procedure:
(FIG. 38A) Postprandial blood glucose measurements in the Wnt inhibitor treatments in db/db mice and untreated control db/db mice. LGK-974 (Wnt inhibitor) was treated at 5 mg/kg body weight dose orally by gavage. (FIG. 38B) GTT analysis in the Wnt inhibitor treatments in db/db mice and untreated control db/db mice. N=6 were analyzed in each group. (FIG. 38C) Area under curve (AUC) in the Wnt inhibitor treatments in db/db mice and untreated control db/db mice. N=6 were analyzed in each group. (FIG. 38D) Physiological parameters such as body weight, epididymal fat, kidney weight, liver weight and heart weight in the Wnt inhibitor treatments in db/db mice and untreated control db/db mice. N=6 were analyzed in each group. (FIG. 38E) MTS and Sirius red staining analysis in the Wnt inhibitor treatments in db/db mice and untreated control db/db mice. Representative pictures of 30× are shown. N=6 were analyzed in each group. Relative area fibrosis (RAF) and relative collagen deposition (RCD) were quantified using Image J software program. (FIG. 38F) MTS and Sirius red staining analysis in the heart sections in the Wnt inhibitor treatments in db/db mice and untreated control db/db mice. Representative pictures of 20× are shown. N=6 were analyzed in each group. […] N=6 were analyzed in each group. […]

The next experiment relates to diabetic CD-1 mice. As to the kind of experiment: Wnt inhibitor (LGK974) treatment in diabetic CD-1 mice, renal histology, GR and β-catenin. The method, then:
(§1) FIG. 24A-24J show inhibition of Wnt signaling abolished the fibrogenic phenotype in mice. (FIG. 24A) Immunohistochemical analysis of -catenin expression in the kidneys of control and diabetic CD-1 and C57BL/6 mice. n=8 biologically independent mice/group combined from two independent experiments were evaluated. Scale bar 50 μm. Representative images are shown; original magnification 200×. (FIG. 24B) Relative mRNA expression determined by qRT-PCR of Axin2, Tcf and fibronectin, in kidneys of control and diabetic CD-1 and C57BL/6 mice. n=6 biologically independent mice/group combined from two experiments were evaluated. Expression was normalized to the internal control 18S. (FIG. 24C) Schematic diagram representing the treatment protocol of Wnt inhibitor (LGK974; 5 mg/kg body weight) in diabetic CD-1 mice and (FIG. 24D) in UUO mice. (FIG. 24E) Masson trichrome and Sirius red staining in the kidneys of diabetic and Wnt inhibitor-treated diabetic CD-1 mice. Representative images (original magnification 300×) are shown. Relative area of fibrosis (%) and relative collagen deposition (%) were measured using the ImageJ program. n=8 biologically independent mice/group combined from two experiments were evaluated. Scale bar 50 μm. (FIG. 24F) Masson trichrome and Sirius red staining in the kidneys of UUO and Wnt inhibitor-treated UUO mice. Representative images (original magnification 300×) are shown. Relative area of fibrosis (%) and relative collagen deposition (%) were measured using the ImageJ program. n=8 biologically independent mice/group combined from two experiments were evaluated. Scale bar 50 μm. (FIGS. 24G-24H) GR protein levels in CD31-positive cells were analyzed by immunofluorescence in the kidneys of Wnti-treated diabetic mice and Wnti-treated UUO mice. FITC-labeled GR, rhodamine-labeled CD31 and DAPI were used. Merged images and representative pictures are shown; original magnification 300×. n=7 biologically independent mice/group combined from four experiments were evaluated. Scale bar 50 μm. (FIGS. 24I-24J) Immunohistochemical analysis of active -catenin expression in Wnti-treated diabetic mice and Wnti-treated UUO mice. n=7 biologically independent mice/group combined from three experiments were evaluated. Scale bar 30 μm. Data are mean SEM. In all panels, one-way Anova with Tukey multiple comparison post hoc test was used to calculate statistical significance. Significance—*p<0.05, **p<0.01, ***p<0.001.
A single IP dose of 200 mg/kg STZ was used to induce diabetes in CD-1 mice.
In one experiment, male mice were randomized to one of 4 groups sixteen weeks after induction of diabetes: (i) untreated, (ii) fenofibrate (100 mg/kg), (iii) simvastatin (40 mg/kg), or (iv) Wnt inhibitor (LGK974; 5 mg/kg). In each case, mice were treated for 4 weeks and compared to untreated diabetic CD-1 mice. In another experiment, male diabetic CD-1 mice were randomized into one of 3 groups: (i) untreated (vehicle), (ii) etomoxir (20 mg/kg) or (iii) C75 (15 mg/kg); in each case mice were treated (IP) three times/week for a total 4 weeks.
(§2) Morphological Evaluation. A point-counting method was utilized to evaluate the relative area of the mesangial matrix. The inventors analyzed PAS-stained glomeruli from each mouse using a digital microscope screen grid containing 540 (27×20) points. Masson's trichrome-stained images were evaluated by ImageJ software, and the fibrotic areas were estimated.
Sirius red staining. Deparaffinized sections were incubated with picrosirius red solution for 1 hour at room temperature. The slides were washed twice with acetic acid solution for 30 seconds per wash. The slides were then dehydrated in absolute alcohol three times, cleared in xylene, and mounted with a synthetic resin. Sirius red staining was analyzed using ImageJ software, and fibrotic areas were quantified.
Immunohistochemistry. […]

The next experiment concerns UUO mice. As to the kind of experiment: Wnt inhibitor (LGK974) treatment in UUO mice, renal histology, GR and β-catenin. The procedure: as §1
Mouse model of unilateral ureteral obstruction (UUO). UUO surgical procedure was performed as previously described^19. Briefly, mice were anesthetized with isoflurane (3%-5% for induction and 1%-3% for maintenance). Mice were shaved on the left side of the abdomen, a vertical incision was made through the skin with a scalpel, and the skin was retracted. A second incision was made through the peritoneum to expose the kidney. The left ureter was ligated twice […] below the renal pelvis with surgical silk, and the ureter was then severed between the 2 ligatures. Then, the ligated kidney was placed gently back into its correct anatomical position, and sterile saline was added to replenish loss of fluid. The incisions were sutured and mice were individually caged. Buprenorphine was used as an analgesic. The first dose was administered 30 minutes before surgery and then every 12 h for 72 h, at a dose of 0.05 mg/kg subcutaneously. Mice were sacrificed and kidney and blood samples were harvested after perfusion with PBS at 10 days after UUO. Contralateral kidneys were used as a nonfibrotic control for all experiments using this model.
as §2
Sirius red staining. […]

Where [2] appears, read: kidney, GR in CD31-positive cells.

Consider `Cc1cc(-c2ncc(CC(=O)Nc3ccc(-c4cnccn4)cn3)cc2C)ccn1` [LGK974], for which the “Snail1, HIF1α and PPARα proteins” value in experiment [1] is “A similar effect was observed”. In addition, in the experiment with db/db mice, the fibrogenic phenotype entry was “abolishes fibrogenic phenotype”. Also, in the experiment on diabetic CD-1 mice (5 mg/kg), the ECM deposition result was “greatly diminished”, the collagen accumulation result is “greatly diminished”, the glomerulosclerosis result is given as “greatly diminished” and the “relative area of fibrosis” value was “greatly diminished”. Besides, the “level of β-catenin” value in the experiment with diabetic CD-1 mice (kidney immunohistochemistry) is given as “suppressed the level of β-catenin”. Besides, the “endothelial GR” value in the experiment on diabetic CD-1 mice (setting [2]) is recorded as “substantially restored endothelial GR”. In the experiment with UUO mice (5 mg/kg), the ECM deposition entry was “greatly diminished”, the collagen accumulation entry is given as “greatly diminished”, the glomerulosclerosis result is listed as “greatly diminished” and the “relative area of fibrosis” value is reported as “greatly diminished”. For the same compound, the “level of β-catenin” value with UUO mice (kidney immunohistochemistry) is reported as “suppressed the level of β-catenin”. For the same compound, the “endothelial GR” value with UUO mice (setting [2]) is reported as “substantially restored endothelial GR”.

For the origin of these results see patent publication US20250179167A1, “IL-6 INHIBITOR AS TREATMENT FOR NEPHROPATHY” (YALE UNIVERSITY, priority 2022, published 2025).
